Test: Impurity profile (sum of all impurities, HPLC) at start and after storage
Type: physicochemical
Method: All HPLC measurements were performed with an […].
Impurity profile: Sum of all the impurities: HPLC, in %: […]

## CC(C)c1c(C(=O)Nc2ccccc2)c(-c2ccccc2)c(-c2ccc(F)cc2)n1CC[C@@H](O)C[C@@H](O)CC(=O)[O-].CC(C)c1c(C(=O)Nc2ccccc2)c(-c2ccccc2)c(-c2ccc(F)cc2)n1CC[C@@H](O)C[C@@H](O)CC(=O)[O-].[Ca+2] (relative stereo) [amorphous atorvastatin calcium, calcium salt of [R-(R*,R*)]-2-(4-fluorophenyl)-β,δ-dihydroxy-5-(1-methylethyl)-3-phenylphenylamino)carbonyl]-1H-pyrrol-1-heptanoic acid]
15 days (70° C./75% relative humidity)
  Sum of all the impurities, HPLC: 1.92%
Start
  Sum of all the impurities, HPLC: 1.07%
